Measurements as given in ChEMBL document CHEMBL1649584, “Overexpression of the naturally occurring blaOXA-51 gene in Acinetobacter baumannii mediated by novel insertion sequence ISAba9” (2009).
≈ marks a conversion by molar mass, not a printed value.

Experiments:
Format in all cases: functional
Acinetobacter baumannii [1] = test: Antimicrobial activity against Acinetobacter baumannii isolate Ab58 overexpressing beta-lactamase OXA-51 gene mediated by novel insertion sequence ISAba9
Acinetobacter baumannii [2] = test: Antimicrobial activity against Acinetobacter baumannii isolate Ab63 overexpressing beta-lactamase OXA-51 gene mediated by novel insertion sequence ISAba9
Acinetobacter baumannii [3] = test: Antimicrobial activity against Acinetobacter baumannii isolate Ab108 overexpressing beta-lactamase OXA-51 gene mediated by novel insertion sequence ISAba9
Acinetobacter baumannii [4] = test: Antimicrobial activity against Acinetobacter baumannii isolate Ab12 overexpressing beta-lactamase OXA-51 gene mediated by novel insertion sequence ISAba9
Acinetobacter baumannii [5] = test: Antimicrobial activity against Acinetobacter baumannii isolate Ab168 overexpressing beta-lactamase OXA-51 gene mediated by novel insertion sequence ISAba9
Acinetobacter baumannii [6] = test: Antimicrobial activity against Acinetobacter baumannii isolate Ab5 overexpressing beta-lactamase OXA-51 gene mediated by novel insertion sequence ISAba9
Acinetobacter baumannii [7] = test: Antimicrobial activity against Acinetobacter baumannii isolate Ab2 overexpressing beta-lactamase OXA-51 gene mediated by novel insertion sequence ISAba9
Acinetobacter baumannii [8] = test: Antimicrobial activity against Acinetobacter baumannii isolate Ab185 overexpressing beta-lactamase OXA-51 gene mediated by novel insertion sequence ISAba9
Acinetobacter baumannii [9] = test: Antimicrobial activity against Acinetobacter baumannii isolate Ab177 overexpressing beta-lactamase OXA-51 gene mediated by novel insertion sequence ISAba9
Acinetobacter baumannii [10] = test: Antimicrobial activity against Acinetobacter baumannii isolate Ab33 overexpressing beta-lactamase OXA-51 gene mediated by novel insertion sequence ISAba9
Acinetobacter baumannii [11] = test: Antimicrobial activity against Acinetobacter baumannii isolate Ab11 overexpressing beta-lactamase OXA-51 gene mediated by novel insertion sequence ISAba9
Acinetobacter baumannii [12] = test: Antimicrobial activity against Acinetobacter baumannii isolate Ab133 overexpressing beta-lactamase OXA-51 gene mediated by novel insertion sequence ISAba9
Acinetobacter baumannii [13] = test: Antimicrobial activity against Acinetobacter baumannii isolate Ab3 overexpressing beta-lactamase OXA-51 gene mediated by novel insertion sequence ISAba9
Acinetobacter baumannii [14] = test: Antimicrobial activity against Acinetobacter baumannii isolate Ab23 overexpressing beta-lactamase OXA-51 gene mediated by novel insertion sequence ISAba9
Acinetobacter baumannii [15] = test: Antimicrobial activity against Acinetobacter baumannii isolate Ab114 overexpressing beta-lactamase OXA-51 gene mediated by novel insertion sequence ISAba9
Acinetobacter baumannii [16] = test: Antimicrobial activity against Acinetobacter baumannii isolate Ab150 overexpressing beta-lactamase OXA-51 gene mediated by novel insertion sequence ISAba9
Acinetobacter baumannii [17] = test: Antimicrobial activity against Acinetobacter baumannii isolate Ab30 overexpressing beta-lactamase OXA-51 gene mediated by novel insertion sequence ISAba9
Acinetobacter baumannii [18] = test: Antimicrobial activity against Acinetobacter baumannii isolate Ab181 overexpressing beta-lactamase OXA-51 gene mediated by novel insertion sequence ISAba9
Acinetobacter baumannii [19] = test: Antimicrobial activity against Acinetobacter baumannii isolate Ab153 overexpressing beta-lactamase OXA-51 gene mediated by novel insertion sequence ISAba9
Acinetobacter baumannii [20] = test: Antimicrobial activity against Acinetobacter baumannii isolate Ab91 overexpressing beta-lactamase OXA-51 gene mediated by novel insertion sequence ISAba9

| SMILES | MIC (Acinetobacter baumannii [1]) [µg/mL] | MIC (Acinetobacter baumannii [2]) [µg/mL] | MIC (Acinetobacter baumannii [3]) [µg/mL] | MIC (Acinetobacter baumannii [4]) [µg/mL] | MIC (Acinetobacter baumannii [5]) [µg/mL] | MIC (Acinetobacter baumannii [6]) [µg/mL] | MIC (Acinetobacter baumannii [7]) [µg/mL] | MIC (Acinetobacter baumannii [8]) [µg/mL] | MIC (Acinetobacter baumannii [9]) [µg/mL] | MIC (Acinetobacter baumannii [10]) [µg/mL] | MIC (Acinetobacter baumannii [11]) [µg/mL] | MIC (Acinetobacter baumannii [12]) [µg/mL] | MIC (Acinetobacter baumannii [13]) [µg/mL] | MIC (Acinetobacter baumannii [14]) [µg/mL] | MIC (Acinetobacter baumannii [15]) [µg/mL] | MIC (Acinetobacter baumannii [16]) [µg/mL] | MIC (Acinetobacter baumannii [17]) [µg/mL] | MIC (Acinetobacter baumannii [18]) [µg/mL] | MIC (Acinetobacter baumannii [19]) [µg/mL] | MIC (Acinetobacter baumannii [20]) [µg/mL] |
| --- | --- | --- | --- | --- | --- | --- | --- | --- | --- | --- | --- | --- | --- | --- | --- | --- | --- | --- | --- | --- |
| C[C@@H](O)[C@H]1C(=O)N2C(C(=O)O)=C(S[C@@H]3CN[C@H](C(=O)N(C)C)C3)[C@H](C)[C@H]12 [MEROPENEM] | 16 (≈ 41.7 µM) | 16 (≈ 41.7 µM) | 16 (≈ 41.7 µM) | 64 (≈ 167 µM) | 12 (≈ 31.3 µM) | 64 (≈ 167 µM) | 4 (≈ 10.4 µM) | 24 (≈ 62.6 µM) | 8 (≈ 20.9 µM) | 64 (≈ 167 µM) | 64 (≈ 167 µM) | 8 (≈ 20.9 µM) | 8 (≈ 20.9 µM) | 64 (≈ 167 µM) | 16 (≈ 41.7 µM) | 16 (≈ 41.7 µM) | 64 (≈ 167 µM) | 32 (≈ 83.4 µM) | 16 (≈ 41.7 µM) | 16 (≈ 41.7 µM) |
| C[C@@H](O)[C@H]1C(=O)N2C(C(=O)O)=C(SCCNC=N)C[C@H]12 [IMIPENEM ANHYDROUS] | 16 (≈ 53.4 µM) | 16 (≈ 53.4 µM) | 16 (≈ 53.4 µM) | 64 (≈ 214 µM) | 12 (≈ 40.1 µM) | 64 (≈ 214 µM) | 4 (≈ 13.4 µM) | 24 (≈ 80.2 µM) | 8 (≈ 26.7 µM) | 64 (≈ 214 µM) | 64 (≈ 214 µM) | 8 (≈ 26.7 µM) | 8 (≈ 26.7 µM) | 64 (≈ 214 µM) | 16 (≈ 53.4 µM) | 16 (≈ 53.4 µM) | 64 (≈ 214 µM) | 32 (≈ 107 µM) | 16 (≈ 53.4 µM) | 16 (≈ 53.4 µM) |
